Measurements reported in patent US7897723B2, “ErbB receptor-derived peptide fragments” (Københavns Universitet, priority 2006, dated 2011).
Bridges are numbered along the chain shown (N, C = ends). Roman numbers before positions name the chains, in order. Where no end group is shown, it is not given here.

What was measured:
L929 cells = assay: Cell proliferation (BrdU incorporation); format: cell-based; conditions: L929 cells
Method: 2000 L929 cells (ECACC no: 85011425) per well were seeded in a 96 well plate in full medium (containing 10% foetal calf serum) or starvation medium (serum-free). Peptides, ErbB1 kinase inhibitor PD153035 (Calbiochem), and EGF (Sigma-Aldrich) were added immediately after seeding of the cells (for experiments done in full serum) or after 8 hours of incubation (for experiments done in starvation medium) in the concentrations indicated in figures. Cells were grown for 6 hours, then 10 μM bromodeoxyuridine (BrdU) was added, and cells were grown for additional 18 hours. Then, BrdU incorporation in the cells was assayed using the Biotrak ELISA System, version 2 from Amersham Biosciences Europe GmbH (Buckinghamshire, UK) following the manufacturer's protocol.

HN5 cells = assay: Cell viability / cell growth (MTS staining); format: cell-based, human; conditions: absence and presence of EGF, absence and presence of serum (FIGS. 6A and B)
Method: 2000 HN5 cells per well were seeded in a 96 well plate in full medium (containing 10% fetal calf serum) or starvation medium (serum-free). After 12 hours of incubation, peptides or ErbB1 kinase inhibitor PD153035 (Calbiochem) and/or EGF (Sigma-Aldrich) were added in the concentrations indicated in figures. Cells were grown for 72 hours, then 20 μl MTS One Solution Reagent (Promega, Madison, Wis., USA) were added per 100 μl culture medium in each well, and the plates were incubated for 1-2 hours at 37° C., followed by absorbance measurements at 490 nm.

[1] = target: T1, extracellular part of human ErbB2 (Fc chimeric protein) (Homo sapiens, UniProt P04626); assay: Surface plasmon resonance (SPR) binding analysis, ErbB2; conditions: peptide immobilized on sensor chip, mean ± SEM
T1 construct: the Fc protein fused to the extracellular parts of human ErbB2, ErbB3 or ErbB4; purchased R&D Systems Europe (Abingdon, UK)
Method: (§1) Binding analyses were performed with the surface plasmon resonance (SPR)-based biosensor instrument BIAcore2000 (BIAcore AB, Uppsala, Sweden), at 25° C. using ready-made HBS-EP buffer (BIAcore AB) as running buffer. Peptides were immobilized on the surface of a CM5 sensor chip (BIAcore AB) using an amine coupling kit (Biosensor AB, Uppsala, Sweden) according to the manufacturer's instructions, at a flow rate of 5 μl/min. Briefly, carboxyl groups on the sensor chip surface were activated by injection of 35 μl activation solution followed by injection of peptide (50 μg/ml peptide in HBS-EP buffer, pH 7.4) until the desired level of immobilized peptide was reached. Unreacted peptide was washed out and unreacted activated groups were blocked by the injection of 35 μl 1 M ethanolamine. […] A reference surface was generated simultaneously under the same conditions but without peptide injection and used as a blank chip control. ErbB receptor proteins were injected at various concentrations at a flow rate of 20 μl/min, and binding to the peptides immobilized on the chip was measured in real-time. The curve corresponding to the difference between signals on flow cells with immobilized peptide and the signal on the blank flow cell was used for analysis. […] Data were analyzed by nonlinear curve fitting using the manufacturer' software. […]

[2] = target: T2, extracellular part of human ErbB4 (Fc chimeric protein) (Homo sapiens, UniProt Q15303); assay: Surface plasmon resonance (SPR) binding analysis, ErbB4; conditions: peptide immobilized on sensor chip, mean ± SEM
T2 construct: the Fc protein fused to the extracellular parts of human ErbB2, ErbB3 or ErbB4; purchased R&D Systems Europe (Abingdon, UK)
T2 sequence (Q15303 26-651 limits assumed): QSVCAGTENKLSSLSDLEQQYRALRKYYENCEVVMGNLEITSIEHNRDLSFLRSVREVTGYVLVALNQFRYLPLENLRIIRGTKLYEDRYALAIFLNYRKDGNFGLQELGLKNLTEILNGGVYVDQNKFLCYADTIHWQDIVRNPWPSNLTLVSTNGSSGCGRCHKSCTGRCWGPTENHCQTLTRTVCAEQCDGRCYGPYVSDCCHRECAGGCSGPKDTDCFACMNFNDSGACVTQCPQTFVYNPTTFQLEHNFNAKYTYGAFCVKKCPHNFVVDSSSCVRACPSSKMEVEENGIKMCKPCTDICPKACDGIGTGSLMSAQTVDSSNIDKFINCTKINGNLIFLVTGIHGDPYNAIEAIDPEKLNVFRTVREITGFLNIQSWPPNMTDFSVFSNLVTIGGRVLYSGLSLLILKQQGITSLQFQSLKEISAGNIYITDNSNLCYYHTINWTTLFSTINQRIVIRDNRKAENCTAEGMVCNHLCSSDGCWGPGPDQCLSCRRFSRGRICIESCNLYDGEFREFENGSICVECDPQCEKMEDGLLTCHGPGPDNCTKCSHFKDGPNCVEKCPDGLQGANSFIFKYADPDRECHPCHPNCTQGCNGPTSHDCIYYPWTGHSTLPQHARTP
Method: as §1

ErbB1 = ErbB1 (Homo sapiens, UniProt P00533); assay: ErbB receptor phosphorylation, HN5 cells; format: cell-based; design: the ErbB1 overexpressing human head and neck cancer cell line HN5; endogenous in cells; host or cells: HN5 human head and neck cancer cells; conditions: 100 μM peptide for 30 min, 10 ng/ml EGF for 10 min (FIG. 8)
Method: The cells employed for this assay were NR6 wtEGFR cells, which are fibroblastoid cells stably transfected with ErbB1, and human head and neck tumor-derived HN5 cell. Confluent NR6 wtEGFR or HN5 cells were treated with peptide in the indicated concentrations for 30 min, then stimulated with 10 ng/ml EGF (Sigma-Aldrich, St. Louis, Mo., USA) for 10 min. Cells were lysed in lysis buffer (1% (v/v) Triton X-100, 150 mM NaCl, 10 mM Tris pH 7.4, 1 mM EDTA, 1 mM EGTA, 0.5% (v/v) NP-40, phosphatase inhibitors (Phosphatase Inhibitor Cocktail Set II from Calbiochem, La Jolla, Calif., USA) and protease inhibitors (Complete™ Protease Inhibitor Cocktail from Boehringer Mannheim Biochemica, Mannheim, Germany)), and cleared lysate samples containing equal amounts of total protein (as determined by a bicinchoninic acid assay (Pierce, Rockford, Ill., USA)) were subjected in duplicates to 4-12% SDS-PAGE and immunoblotting. One membrane was probed with anti-phospho-EGFR (phosphotyrosine 1068) antibody (Cell Signaling Technology, Danvers, Mass., USA), the other with anti-EGFR antibody (Cell Signaling Technology). Detection was carried out using horseradish peroxidase (HRP)-conjugated secondary antibodies (DAKO, Denmark) and enhanced chemiluminiscence (Pierce). The intensity of bands was quantified using densitometric analysis employing the software package GeneTools (Syngene, Cambridge, UK).

[3] = starvation medium, 10 or 100 ng/ml EGF, BrdU incorporation (FIG. 4)
[4] = full medium, BrdU incorporation (FIG. 2, FIG. 3)

T1 sequence (P04626 23-652 limits assumed, change not shown): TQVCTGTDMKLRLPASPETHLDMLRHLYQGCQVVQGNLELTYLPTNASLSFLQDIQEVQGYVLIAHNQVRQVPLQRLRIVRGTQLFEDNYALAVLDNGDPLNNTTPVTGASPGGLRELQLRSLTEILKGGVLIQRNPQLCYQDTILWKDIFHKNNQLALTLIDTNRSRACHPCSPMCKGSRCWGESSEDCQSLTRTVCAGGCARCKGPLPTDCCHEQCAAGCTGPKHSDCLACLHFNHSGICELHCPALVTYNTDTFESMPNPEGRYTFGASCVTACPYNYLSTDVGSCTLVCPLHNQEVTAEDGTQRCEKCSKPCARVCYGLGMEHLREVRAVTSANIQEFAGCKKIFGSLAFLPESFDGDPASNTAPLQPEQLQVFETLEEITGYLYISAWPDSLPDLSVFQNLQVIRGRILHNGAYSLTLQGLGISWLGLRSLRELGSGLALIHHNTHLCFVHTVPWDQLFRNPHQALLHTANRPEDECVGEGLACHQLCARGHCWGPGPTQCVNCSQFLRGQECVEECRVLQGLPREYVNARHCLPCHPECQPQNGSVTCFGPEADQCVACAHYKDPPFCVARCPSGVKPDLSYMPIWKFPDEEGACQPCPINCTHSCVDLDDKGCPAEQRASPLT

| Compound | effect on EGF-induced cell proliferation (L929 cells; [3]) | effect on HN5 cell growth (HN5 cells) | KD for binding to ErbB2 [1] | KD for binding to ErbB4 [2] | effect on EGF-induced cell proliferation (L929 cells; [4]) | other results |
| --- | --- | --- | --- | --- | --- | --- |
| COc1cc2ncnc(Nc3cccc(Br)c3)c2cc1OC [PD153035, reference compound] | blocked cell proliferation induced by stimulation with either 10 or 100 ng/ml EGF | strongly inhibited growth of the cells both in absence and presence of EGF-stimulation and in the absence and presence of serum | – | – | – | – |
| I: H-MLYNPTTYQMDVNPEGKKK / II: H-MLYNPTTYQMDVNPEGKK / III: H-MLYNPTTYQMDVNPEGK / IV: H-MLYNPTTYQMDVNPEGK (amide I:18-IV:C, I:19-II:C, II:18-III:C) [Inherbin 1DL, MLYNPTTYQMDVNPEGK] | – | – | No binding | No binding | – | – |
| I: LVYNKLTFQLEPNPHTKKK / II: LVYNKLTFQLEPNPHTKK / III: LVYNKLTFQLEPNPHTK / IV: LVYNKLTFQLEPNPHTK (amide I:18-IV:C, I:19-II:C, II:18-III:C) [Inherbin3d] | inhibited EGF-induced cell proliferation | – | No binding | No binding | – | peptide doses that significantly inhibited cell proliferation (L929 cells; proliferation induced by either 10 or 100 ng/ml EGF (FIG. 4)): ≥ 0.6 µM |
| Inherbin3n: truncated peptide constituting the N-terminal half of the Inherbin3 peptide (possibly B3dln, SEQ ID NO: 36) (PLVYNKLT; B3dln peptide) | – | – | – | – | inhibited EGF-induced cell proliferation to the same extent as Inherbin3 | – |
| KHKLPYNFNLETTVQPL (also: tetrameric dendrimer on lysine backbone) [Scr-Inherbin3d, reference compound] | – | no significant effects on HN5 cell growth | – | – | – | – |
| VTYNTDTFESMPNPEGR (Inherbin 2 peptide) [Inherbin2] | – | – | – | – | able to inhibit EGF-induced cell proliferation significantly | effect on EGF-induced ErbB1 phosphorylation (ErbB1): not statistically significant |
